Experimental data from US10647679B2, “N-methyl-D-aspartate receptor (NMDAR) potentiators, pharmaceutical compositions, and uses related thereto” (Emory University, priority 2015, dated 2020).
Read-outs that look alike come from different tables or passages of the source. Values belong to the molecule of their own block, whether it stands above or below them.

How the values were obtained:
Format in all cases: cell-based
[1] = biological target: T1, recombinant rat GluN1/GluN2C (Rattus norvegicus, UniProt Q00961); experiment: Two-electrode voltage-clamp (TEVC) recordings in Xenopus laevis oocytes, GluN1/GluN2C; settings: for I30 μM/Icontrol (mean ± SEM, %) GluN2C: 30 μM compound, Tables 5-7
T1 construct: expressed in transfected cells; host or cells: Xenopus laevis oocytes (Ecocyte) injected with in vitro transcribed cRNA
T1 sequence (Q00961 20-1237, other chains not shown): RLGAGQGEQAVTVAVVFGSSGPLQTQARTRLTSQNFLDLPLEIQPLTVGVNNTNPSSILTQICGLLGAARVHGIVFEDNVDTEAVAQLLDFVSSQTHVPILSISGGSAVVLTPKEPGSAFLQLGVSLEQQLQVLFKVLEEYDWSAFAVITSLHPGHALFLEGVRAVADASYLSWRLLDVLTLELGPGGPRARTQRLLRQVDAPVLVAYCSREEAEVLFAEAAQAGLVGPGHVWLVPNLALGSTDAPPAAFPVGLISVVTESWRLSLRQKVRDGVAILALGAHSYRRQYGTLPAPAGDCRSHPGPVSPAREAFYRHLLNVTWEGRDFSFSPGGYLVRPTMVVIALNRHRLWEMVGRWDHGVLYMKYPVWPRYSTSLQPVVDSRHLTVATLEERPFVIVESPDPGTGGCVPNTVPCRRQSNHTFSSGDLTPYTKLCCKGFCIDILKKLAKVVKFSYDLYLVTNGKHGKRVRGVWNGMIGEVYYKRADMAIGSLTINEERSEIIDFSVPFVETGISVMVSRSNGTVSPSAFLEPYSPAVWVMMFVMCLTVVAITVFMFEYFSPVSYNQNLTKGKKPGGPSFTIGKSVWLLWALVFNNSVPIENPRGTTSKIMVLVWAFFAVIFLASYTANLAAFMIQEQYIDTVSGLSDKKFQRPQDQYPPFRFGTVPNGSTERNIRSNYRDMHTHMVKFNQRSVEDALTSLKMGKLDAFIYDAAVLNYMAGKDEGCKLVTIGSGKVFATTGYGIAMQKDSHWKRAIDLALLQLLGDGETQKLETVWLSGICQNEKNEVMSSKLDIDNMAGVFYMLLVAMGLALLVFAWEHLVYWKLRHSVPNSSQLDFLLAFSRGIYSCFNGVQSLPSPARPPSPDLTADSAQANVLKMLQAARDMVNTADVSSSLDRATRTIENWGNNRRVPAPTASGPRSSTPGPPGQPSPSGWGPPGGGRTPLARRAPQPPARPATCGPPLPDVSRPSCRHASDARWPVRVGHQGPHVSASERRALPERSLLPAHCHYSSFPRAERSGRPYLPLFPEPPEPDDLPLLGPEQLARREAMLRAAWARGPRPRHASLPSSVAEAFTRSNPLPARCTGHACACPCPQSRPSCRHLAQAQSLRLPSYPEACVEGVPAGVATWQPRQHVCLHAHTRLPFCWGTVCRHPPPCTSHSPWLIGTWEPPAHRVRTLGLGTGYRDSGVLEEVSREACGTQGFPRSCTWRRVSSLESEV
Experimental: (§1) Data are from between 3-26 oocytes from 2-5 frogs for each compound and receptor tested.
(§2) Two-electrode voltage-clamp recordings were performed in Xenopus laevis oocytes (Ecocyte) expressing recombinant rat GluN1/GluN2A, GluN1/GluN2B, GluN1/GluN2C, GluN1/GluN2D. cRNA was transcribed in vitro (Ambion), diluted with nuclease free water, and injected at a ratio of 1:2 GluN1:GluN2 (5-10 ng total cRNA). The oocytes were kept in Barth's solution comprised of (in mM) 88 NaCl, 5 Tris-HCl, 2.4 NaHCO3, 1 KCl, 0.84 MgSO4, 0.41 CaCl2, and 0.33 Ca(NO3)2 at pH 7.4 at 15-17° C. for two to five days before experiments. Oocytes were placed into a perfusion chamber and continually washed with recording solution containing (in mM) 90 NaCl, 1.0 KCl, 0.5 BaCl2, 0.005 EDTA, and 10 HEPES at pH 7.4 (23° C.). Voltage clamp recordings were conducted at a holding potential of −40 mV. All compounds were made as 20 mM stock solutions in DMSO and dissolved to reach the final concentration in recording solution. Final DMSO content was 0.05-0.5% (vol/vol). Some oocytes expressing GluN1/GluN2A were pretreated with […] BAPTA-AM for 10 minutes or injected with […] of 2 mM K-BAPTA to prevent gradual run-up of the current response.

[2] = biological target: T2, recombinant rat GluN1/GluN2B (Rattus norvegicus, UniProt Q00960); experiment: Two-electrode voltage-clamp (TEVC) recordings in Xenopus laevis oocytes, GluN1/GluN2B; settings: for I30 μM/Icontrol (mean ± SEM, %) GluN2B: 30 μM compound, Tables 5-7
T2 construct: expressed in transfected cells; host or cells: Xenopus laevis oocytes (Ecocyte) injected with in vitro transcribed cRNA
T2 sequence (Q00960 27-1482, other chains not shown): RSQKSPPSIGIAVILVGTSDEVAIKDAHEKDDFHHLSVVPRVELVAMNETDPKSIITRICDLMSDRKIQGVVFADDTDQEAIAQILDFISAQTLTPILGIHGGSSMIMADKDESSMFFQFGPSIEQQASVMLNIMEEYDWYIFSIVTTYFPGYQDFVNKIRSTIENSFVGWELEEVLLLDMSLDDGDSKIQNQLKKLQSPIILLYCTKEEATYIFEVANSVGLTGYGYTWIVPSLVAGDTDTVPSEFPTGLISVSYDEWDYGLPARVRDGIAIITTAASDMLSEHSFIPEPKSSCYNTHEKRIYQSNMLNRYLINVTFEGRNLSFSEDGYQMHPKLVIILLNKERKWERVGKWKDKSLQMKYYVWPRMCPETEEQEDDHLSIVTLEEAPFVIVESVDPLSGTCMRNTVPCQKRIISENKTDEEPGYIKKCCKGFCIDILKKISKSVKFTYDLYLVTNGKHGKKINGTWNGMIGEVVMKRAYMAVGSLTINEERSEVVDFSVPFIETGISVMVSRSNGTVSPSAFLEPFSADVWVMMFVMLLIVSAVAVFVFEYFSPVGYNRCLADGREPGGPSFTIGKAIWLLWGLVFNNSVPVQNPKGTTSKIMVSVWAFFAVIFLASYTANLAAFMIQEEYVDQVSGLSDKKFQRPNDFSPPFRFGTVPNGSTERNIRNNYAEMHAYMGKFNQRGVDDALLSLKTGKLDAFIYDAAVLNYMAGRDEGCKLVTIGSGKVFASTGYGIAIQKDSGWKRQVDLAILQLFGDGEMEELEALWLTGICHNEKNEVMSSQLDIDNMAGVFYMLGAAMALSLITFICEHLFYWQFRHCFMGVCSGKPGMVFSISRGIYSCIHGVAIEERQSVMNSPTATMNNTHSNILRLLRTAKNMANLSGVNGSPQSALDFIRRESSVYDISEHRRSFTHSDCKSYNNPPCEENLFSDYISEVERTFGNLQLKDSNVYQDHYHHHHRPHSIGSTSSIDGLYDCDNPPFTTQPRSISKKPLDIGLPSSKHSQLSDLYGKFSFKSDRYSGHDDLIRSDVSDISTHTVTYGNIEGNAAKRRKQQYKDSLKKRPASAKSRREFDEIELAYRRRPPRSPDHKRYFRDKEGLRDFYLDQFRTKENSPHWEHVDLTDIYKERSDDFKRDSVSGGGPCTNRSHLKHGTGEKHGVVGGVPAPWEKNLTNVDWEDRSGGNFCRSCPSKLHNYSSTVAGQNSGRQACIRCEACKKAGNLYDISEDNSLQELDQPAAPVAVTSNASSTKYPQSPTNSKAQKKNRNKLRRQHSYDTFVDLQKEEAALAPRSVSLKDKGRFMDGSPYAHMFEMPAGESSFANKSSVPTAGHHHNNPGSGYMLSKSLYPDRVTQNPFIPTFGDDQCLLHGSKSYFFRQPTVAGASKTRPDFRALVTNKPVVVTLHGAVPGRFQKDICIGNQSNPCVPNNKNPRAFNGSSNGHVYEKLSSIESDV
Experimental: as §1, §2

[3] = biological target: T3, recombinant rat GluN1/GluN2B (Rattus norvegicus, UniProt P35439+Q00960); experiment: as above; settings: for EC50: fitted when potentiation at 30 μM exceeded 120%, Tables 3, 5-7, read-out: EC50 (max.) (μM %) GluN2B: fitted EC50
T3 construct: expressed in transfected cells; host or cells: Xenopus laevis oocytes (Ecocyte) injected with in vitro transcribed cRNA
Experimental: as §1, §2

[4] = biological target: T4, recombinant rat GluN1/GluN2D (Rattus norvegicus, UniProt Q62645); experiment: Two-electrode voltage-clamp (TEVC) recordings in Xenopus laevis oocytes, GluN1/GluN2D; settings: for I30 μM/Icontrol (mean ± SEM, %) GluN2D: 30 μM compound, Tables 5-7
T4 construct: expressed in transfected cells; host or cells: Xenopus laevis oocytes (Ecocyte) injected with in vitro transcribed cRNA
T4 sequence (Q62645 28-1323, other chains not shown): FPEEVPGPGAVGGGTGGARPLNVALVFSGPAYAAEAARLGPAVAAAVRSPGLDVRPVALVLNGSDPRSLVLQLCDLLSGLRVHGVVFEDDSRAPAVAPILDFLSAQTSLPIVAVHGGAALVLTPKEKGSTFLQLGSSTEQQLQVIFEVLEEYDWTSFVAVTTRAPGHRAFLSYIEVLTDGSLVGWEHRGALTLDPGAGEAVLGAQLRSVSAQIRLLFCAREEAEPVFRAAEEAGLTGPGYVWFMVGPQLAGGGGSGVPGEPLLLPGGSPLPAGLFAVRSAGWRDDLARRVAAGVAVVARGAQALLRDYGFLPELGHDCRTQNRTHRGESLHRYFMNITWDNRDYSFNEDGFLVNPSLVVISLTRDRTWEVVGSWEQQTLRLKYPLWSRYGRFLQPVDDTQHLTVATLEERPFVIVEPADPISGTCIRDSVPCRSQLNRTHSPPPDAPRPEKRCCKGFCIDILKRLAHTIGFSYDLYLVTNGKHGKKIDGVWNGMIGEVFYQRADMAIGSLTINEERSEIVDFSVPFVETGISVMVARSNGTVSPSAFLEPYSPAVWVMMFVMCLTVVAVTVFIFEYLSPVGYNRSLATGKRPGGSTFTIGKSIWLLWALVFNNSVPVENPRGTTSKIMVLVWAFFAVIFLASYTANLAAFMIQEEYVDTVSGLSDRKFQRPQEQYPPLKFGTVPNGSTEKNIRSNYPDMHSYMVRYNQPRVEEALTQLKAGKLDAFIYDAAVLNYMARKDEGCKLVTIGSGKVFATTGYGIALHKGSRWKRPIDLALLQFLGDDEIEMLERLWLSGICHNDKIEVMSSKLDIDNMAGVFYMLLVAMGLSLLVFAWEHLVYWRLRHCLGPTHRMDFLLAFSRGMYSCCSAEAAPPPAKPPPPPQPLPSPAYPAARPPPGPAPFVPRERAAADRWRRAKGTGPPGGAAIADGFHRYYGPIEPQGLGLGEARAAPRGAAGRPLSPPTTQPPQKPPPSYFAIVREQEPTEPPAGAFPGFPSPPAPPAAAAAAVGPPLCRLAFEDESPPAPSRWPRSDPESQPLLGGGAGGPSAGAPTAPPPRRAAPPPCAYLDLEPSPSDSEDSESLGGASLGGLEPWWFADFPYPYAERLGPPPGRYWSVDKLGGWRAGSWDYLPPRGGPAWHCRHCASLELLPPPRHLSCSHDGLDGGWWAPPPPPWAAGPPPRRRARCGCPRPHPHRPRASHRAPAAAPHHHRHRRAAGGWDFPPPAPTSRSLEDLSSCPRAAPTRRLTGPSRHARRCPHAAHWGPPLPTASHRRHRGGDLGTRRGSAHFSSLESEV
Experimental: as §1, §2

[5] = biological target: T5, recombinant rat GluN1/GluN2C (Rattus norvegicus, UniProt P35439+Q00961); experiment: Two-electrode voltage-clamp (TEVC) recordings in Xenopus laevis oocytes, GluN1/GluN2C
T5 construct: expressed in transfected cells; host or cells: Xenopus laevis oocytes (Ecocyte) injected with in vitro transcribed cRNA
T5 sequence (Q00961 20-1237, other chains not shown): as the sequence (Q00961 20-1237, other chains not shown) above
Experimental: as §1, §2

[6] = maximum potentiation, response without modulator = 100%, read-out: GluN2B EC50 (μM)/Max %: Max %
[7] = percentage of the initial glutamate (100 μM) and glycine (30 μM) current, read-out: EC50 (max.) (μM %) GluN2B: fitted maximum response
[8] = maximum potentiation, response without modulator = 100%, read-out: GluN2C EC50 (μM)/Max %: Max %
[9] = maximum potentiation, response without modulator = 100%
[10] = percentage of the initial glutamate (100 μM) and glycine (30 μM) current

- I30 μM/Icontrol (mean ± SEM, %) GluN2C [1]: 103%
- I30 μM/Icontrol (mean ± SEM, %) GluN2B [2]: 151%
- EC50 [3]: 2.8 µM
- Emax [3, 6]: 152%
- Emax [3, 7]: 152%
SMILES: CCOc1ccc(OCC2c3ccc(OC(C)C)cc3CCN2C(=O)c2cccc(F)c2)cc1 (stereo not shown) [1180-87]

- GluN2D response % at 30 µM [4]: 101% at
- GluN2C response % at 30 µM [1]: 127% at
- EC50 ([2]; untitled tables after drawing 25 and drawing 36, read-out: EC50 (μM) GluN2B): 4.6 µM
SMILES: CC(C)Oc1ccc(OCC2c3ccc(OC(C)C)cc3CCN2C(=O)c2cccc(Cl)c2)cc1 (stereo not shown) [1180-264]

- I30 μM/Icontrol (mean ± SEM, %) GluN2D [4]: 86%
- I30 μM/Icontrol (mean ± SEM, %) GluN2C [1]: 103%
- I30 μM/Icontrol (mean ± SEM, %) GluN2B [2]: 103%
SMILES: CCOc1ccc(OC[C@H]2c3ccc(OC(C)C)cc3CCN2C(=O)c2cccc(F)c2)cc1 [(R)-(+)-1180-87]

- I30 μM/Icontrol (mean ± SEM, %) GluN2D [4]: 102%
- GluN2D potentiation at 3 μM ([4]; at 3 μM, footnote c of Table 7): exceeded 120%
- I30 μM/Icontrol (mean ± SEM, %) GluN2C [1]: 114%
- GluN2C potentiation at 3 μM ([1]; at 3 μM, footnote c of Table 7): exceeded 120%
- I30 μM/Icontrol (mean ± SEM, %) GluN2B [2]: 153%
- EC50 [3]: 0.94 µM
- Emax [3, 7]: 163%
SMILES: CCOc1ccc(OC[C@@H]2c3ccc(OC(C)C)cc3CCN2C(=O)c2ccc(Cl)c(Cl)c2)cc1 [(S)-(−)-1180-103]

- I30 μM/Icontrol (mean ± SEM, %) GluN2D [4]: 74%
- I30 μM/Icontrol (mean ± SEM, %) GluN2C [1]: 58%
- I30 μM/Icontrol (mean ± SEM, %) GluN2B [2]: 95%
SMILES: CCOc1ccc(OC[C@H]2c3ccc(OC(C)C)cc3CCN2C(=S)c2cccc(F)c2)cc1 [(R)-(+)-1180-154]

- Emax [5, 8]: 132%
- Emax [3, 6]: 138%
SMILES: CCOc1ccc(OCC2c3ccc(OC(C)C)cc3CCN2C(=O)c2cccc(Br)c2)cc1 (stereo not shown) [1180-86]

Further lines, the molecule ahead of its results:

SMILES: CCOCC(=O)N1CCc2cc(OC)ccc2C1COc1ccc(OC)cc1 (stereo not shown) [1180-240]
- GluN2D response % at 30 µM [4]: 114% at 30
- GluN2C response % at 30 µM [1]: 115% at 30
- GluN2B response % at 30 µM [2]: 100% at 30

SMILES: COc1ccc(OCC2c3ccc(OC)cc3CCN2C(=O)C=CCl)cc1 (stereo not shown) [1180-251]
- GluN2D response % at 30 µM [4]: 88% at 30
- GluN2C response % at 30 µM [1]: 99% at 30
- GluN2B response % at 30 µM [2]: 96% at 30

SMILES: CCOc1ccc(OC[C@@H]2c3ccc(OC(C)C)cc3CCN2C(=S)c2cccc(C(F)(F)F)c2)cc1 [(S)-(−)-1180-168]
- I30 μM/Icontrol (mean ± SEM, %) GluN2D [4]: 87%
- I30 μM/Icontrol (mean ± SEM, %) GluN2C [1]: 87%
- I30 μM/Icontrol (mean ± SEM, %) GluN2B [2]: 95%

SMILES: COc1ccc(OCC2c3cc(OC)c(OC)cc3CCN2C(=O)c2cccc(Cl)c2)cc1 (stereo not shown) [1390 (CIQ), reference compound]
- EC50 & Max Effect: 2D Max (%) ([4]; Tables 11-13): 205%
- EC50 & Max Effect: 2C Max (%) [1]: 215%
- EC50 ([1]; read-out: EC50 & Max Effect: 2C): 2.9 µM

SMILES: COc1ccc(OCC2c3ccc(OC)cc3CCN2C(=O)C=C(C)C(F)(F)F)cc1 (stereo not shown) [1180-255]
- EC50 ([4]; untitled tables after drawing 25 and drawing 36, read-out: EC50 (μM) GluN2D): 23 µM
- EC50 ([1]; untitled tables after drawing 25 and drawing 36, read-out: EC50 (μM) GluN2C): 15 µM
- GluN2B response % at 30 µM [2]: 99% at 30

SMILES: COc1ccc(OCC2c3cc(OC(=O)c4cccc(Cl)c4)c(OC)cc3CCN2C(=O)C=CC(F)(F)F)cc1 (stereo not shown) [1180-330]
- GluN2D response % at 30 µM [4]: 96 at 30%
- GluN2C response % at 30 µM [1]: 102 at 30%
- GluN2B response % at 30 µM [2]: 95 at 30%

SMILES: COc1ccc(OCC2c3ccc(OC(C)C)cc3CCN2C(=S)c2cccc(Cl)c2)cc1 (racemic) [1180-163]
- I10 μM/Icontrol (mean ± SEM, %) GluN2D ([4]; 10 μM compound, Table 3): 231%
- EC50 & Max Effect: 2D Max (%) ([4]; Tables 11-13): 249%
- EC50 ([4]; Tables 11-13, read-out: EC50 & Max Effect: 2D): 0.43 µM
- EC50 ([4]; fitted when potentiation at 30 μM exceeded 120%, Tables 3, 5-7, read-out: EC50 (max.) (μM %) GluN2D: fitted EC50): 0.14 µM
- GluN2D EC50 (μM)/Max %: Max % [4, 9]: 249%
- EC50 (max.) (μM %) GluN2D: fitted maximum response [4, 10]: (260%)
- I10 μM/Icontrol (mean ± SEM, %) GluN2C ([1]; 10 μM compound, Table 3): 272%
- EC50 & Max Effect: 2C Max (%) ([1]; Tables 11-13): 247%
- EC50 ([1]; Tables 11-13, read-out: EC50 & Max Effect: 2C): 0.43 µM
- EC50 ([1]; fitted when potentiation at 30 μM exceeded 120%, Tables 3, 5-7, read-out: EC50 (max.) (μM %) GluN2C: fitted EC50): 0.32 µM
- GluN2C EC50 (μM)/Max %: Max % [1, 9]: 247%
- EC50 (max.) (μM %) GluN2C: fitted maximum response [1, 10]: (273%)
- I10 μM/Icontrol (mean ± SEM, %) GluN2B ([2]; 10 μM compound, Table 3): 212%
- EC50 ([2]; fitted when potentiation at 30 μM exceeded 120%, Tables 3, 5-7, read-out: EC50 (max.) (μM %) GluN2B: fitted EC50): 0.11 µM
- GluN2B EC50 (μM)/Max %: Max % [2, 9]: 262%
- EC50 (max.) (μM %) GluN2B: fitted maximum response [2, 10]: (228%)

SMILES: CCOc1ccc(OCC2c3ccc(OC(C)C)cc3CCN2C(=S)c2ccc(Cl)c(Cl)c2)cc1 (stereo not shown) [1180-155]
- Emax [5, 8]: 169%
- Emax [3, 6]: 157%

SMILES: COc1ccc(OCC2c3cc(OC)c(OC)cc3CCN2C(=O)c2cccc(Br)c2)cc1 (stereo not shown) [compound 1391]
- EC50 & Max Effect: 2D Max (%) ([4]; Tables 11-13): 188%
- Emax ([5]; Tables 11-13, read-out: EC50 & Max Effect: 2C Max (%)): 145%
